Values joined by “and” are separate entries in the source; they are usually repeats but may differ in a detail not shown here. Identical values can stand only once.

Experiment [1] relates to subcutaneous SW620 xenograft tumors. The experiment in a line: SW620 xenograft study in nude mice. It counts as in vivo. The method, then:
In even another exemplary study, anti-neoplasm potency of the constrained pyrrolidine sphingolipid-like compounds in xenograft tumor animal studies. Nude mice bearing subcutaneous SW620 xenograft tumors were treated daily with 10 mg/kg FTY720 or 20 mg/kg of compounds 5 or 15 by intraperitoneal injection. […] Furthermore, these compounds retain many of the beneficial abilities of FTY720, such as, for example water solubility, oral bioavailability, and anti-tumor activity but no longer trigger bradycardia. Thus, these compounds are ideal for medicaments and treatments for neoplasms.
SW620 and SW480 xenograft studies: For SW620 xenograft studies, two and one half million luciferase-expressing SW620 colon cancer cells suspended in PBS with 2% FCS are injected subcutaneously in the flank of 7 week old male nude mice (Charles Rivers Labs, Crl:NU(NCr)-Foxn1nu). When tumors reached 100 mm^3 in volume, mice are assigned to groups with matched average tumor volumes and animal weights. Four groups containing 7 mice are treated intraperitoneally with either vehicle (0.9% saline), 10 mg/kg FTY720, or 20 mg/kg compound 5 or compound 15. Tumor length and width are measured with calipers at 7 and 11 days of treatment. Tumor volume is calculated using the formula volume (mm^3)=length [mm]×(width [mm])^2×0.52. The average fold change in the volume of each tumor over time is shown.

Another experiment concerns CD98 (4F2hc, SLC3A2). The experiment in a line: Surface CD98 nutrient transporter down-regulation by flow cytometry. The class given is cell-based, murine. The following applies: FL5.12 cells, surface CD98 at 3 h, flow cytometry, mean ± SEM, n ≥3. The source says: In an exemplified study, nutrient transporter down-regulation was monitored by quantifying surface levels of the amino acid transporter-associated protein, CD98, by flow cytometry. Vacuolation was scored in a range from 0 to […], as determined by a vacuolation assay described in greater detail in the Materials and Methods section below.
Cell culture studies: FL5.12 cells (murine hematopoetic cells originally obtained from Craig Thompson, Memorial Sloan Kettering Cancer Center) were maintained at 0.1-0.5 million/ml in RPMI 1640 (Mediatech) supplemented with 10% fetal calf serum (FCS, Sigma-Aldrich), 10 mM Hepes (Mediatech), 500 pg/ml recombinant IL-3 (cat #575502, Biolegend), 55 μM β-mercaptoethanol (Sigma-Aldrich), 2 mM L-glutamine (Mediatech), and antibiotics. Cells were screened for Mycoplasma every 3 months using the Look-Out Mycoplasma PCR Detection kit (cat #MP0035, Sigma).
Nutrient transporter expression: Surface CD98 (4F2hc, SLC3A2) expression was measured at 3 h using phycoerythrin (PE)-conjugated rat anti-mouse CD98 antibody (Biolegend, cat #128208); analysis was restricted to viable cells. PE conjugated Rat IgG2a, k (cat #400508, Biolegend) was used as an isotype control. For staining, 200,000 cells were pelleted, re-suspended in 100 μl FACS block (PBS with 10% FCS and 0.05% NaN3) containing 0.25 μL anti-CD98 antibody, incubated on ice for 30 min, washed twice with 1 ml FACS wash (PBS containing 2% FCS and 0.05% NaN3), and analyzed on a BD LSR II flow cytometer. Data was processed with FlowJo software (Treestar).

Another experiment deals with PP2A. The experiment is described as follows: PP2A phosphatase activity. It counts as biochemical, murine. The following applies: PP2A immunoprecipitated from FL5.12 cell lysates, phosphopeptide dephosphorylation. From the text:
Furthermore, many embodiments of the invention are directed to azacyclic constrained sphingolipid-like molecules inducing internalization of nutrient transporters via a mechanism that activates PP2A. […] Thus, activation of PP2A is very peculiar to certain sphingolipid structures. Activation of PP2A by FTY720 and SH-BC-893 also stimulated vacuolation, and as the PP2A inhibitors calyculin A and SV40 small t antigen, each blocked this effect (FIG. 59C). Of note, YM201636-induced vacuolation was unaffected by PP2A inhibition (FIG. 60B). In addition, inhibiting PP2A restored PIKfyve to the proper location within vacuoles in cells treated with FTY720 or SH-BC-893 (FIG. 57D).
PP2A phosphatase activity. PP2A activity was measured using a PP2A immunoprecipitation phosphatase assay kit (EMD Millipore). Briefly, the catalytic subunit of PP2A was immunoprecipitated from FL5.12 cell lysates with 4 μg anti-PP2A, C subunit. After four washes, the activity of immunoprecipitated PP2A was assessed by dephosphorylation of the phosphopeptide according to the manufacturer's instructions in the presence or absence of C2-ceramide, dihydro-C2-ceramide, FTY720, SH-BC-893, or calyculinA.

The nature of experiment [2]: Lymphocyte sequestration in mice. The settings on record: 10 mg/kg intraperitoneally, blood after 12 h, compared to saline. The class given is in vivo, C57BL6 mice. From the text:
In more exemplary embodiments, compounds 5 and 5-P were further examined for their ability to activate multiple S1P receptors in vivo. In particular, mouse heart rate and lymphocyte sequestration were examined. Mouse heart rate decreases causing bradycardia when S1P receptor 3 is activated while in humans this effect may be mediated by S1P receptor 1. In both mice and humans, lymphocytes are sequestered when the S1P receptor 1 is activated.
Lymphocyte sequestration: Female 8-24 week old C57BL6 mice are injected intraperitoneally with vehicle (0.9% saline or 20% acidified DMSO in 0.9% saline), 10 mg/kg FTY720, FTY720-phosphate, 5, or 5-P. After 12 h, blood is collected from the retro-orbital sinus under ketamine/xylazine anesthesia. 10 μL of whole blood is added to 190 μL of ACK red blood cell lysis buffer, incubated at room temperature for 3-5 minutes […], and the white blood cells recovered by centrifugation. Nucleated cells (Hoechst33342 positive) are counted using a hemocytometer to obtain the white blood cell count. Separately, 50 μL of whole blood is added to 1 mL of ACK red blood cell lysis buffer and incubated for 3-5 minutes at room temperature. Cells are washed with FACS wash (2% FCS in PBS with 0.05% NaN3) and red blood cell lysis repeated. Tubes are decanted and resuspended in 100 μL of FACS block (10% FCS in PBS with 0.05% NaN3) with directly conjugated antibodies recognizing B220, CD4, or CD8 (all from Biolegend, San Diego) for 30 min on ice. Cells are analyzed on a BD LSR II flow cytometer; the analysis is restricted to live cells (DAPI negative). These experiments are performed in accordance with all national or local guidelines and regulations and are approved by the UCI Institutional Animal Care and Use Committee.

As for `CCCCCCCCc1ccc([C@H]2CCN[C@@H]2CO)cc1.Cl` [Compound 5, (2S,3R)-2-(hydroxymethyl)-3-(4-octylphenyl)Pyrrolidinium chloride], the “tumor growth of SW620 xenografts” value in experiment [1] (20 mg/kg daily by intraperitoneal injection) was “inhibited tumor growth”. Also, the “% CD98 down-regulation” value in the experiment with CD98 (4F2hc, SLC3A2) (listed as 104) is 54% and 54 ± 1%. In addition, in the experiment on PP2A, the PP2A activation entry is listed as “activating PP2A”. In addition, in experiment [2], the lymphocyte sequestration result was “no significant effect”.
As for `CCCCCCCCc1ccc(CCC(N)(CO)CO)cc1.Cl` [FTY720, 2-Amino-2-[2-(4-octylphenyl)ethyl]propane 1,3-diol hydrochloride, reference compound], the “tumor growth of SW620 xenografts” value in experiment [1] (10 mg/kg daily by intraperitoneal injection) is recorded as “inhibited tumor growth”. The “% CD98 down-regulation” value in the experiment on CD98 (4F2hc, SLC3A2) came to 68 ± 3%. Moreover, the PP2A activation result in the experiment on PP2A was “activating PP2A”. Further, in experiment [2], the lymphocyte sequestration result was “significantly sequestered lymphocytes”.

For the origin of these results see patent US10995068B2, “Synthetic sphingolipid-like molecules, drugs, methods of their synthesis and methods of treatment” (The Regents of the University of California, priority 2015, dated 2021).
